From US4016159A, “Acylamino-cephem-carboxylic acids containing an amidino or guanidino group in the molecule” (Hoechst Aktiengesellschaft, priority 1973, dated 1977) come the findings set out here.

Holding throughout (format): cell-based
In assay [1] the test system is Staphylococcus aureus 285. Put plainly: Minimum inhibition concentration (MIC), Table 1. To be noted: Staphylococcus aureus, 285, Germ: Staphylococcus aureus 285; read-out: Minimum inhibition concentration (MIC). The text has this: (§1) Minimum inhibition concentration (MIC) in γ/ml
Germ: Staphylococcus aureus 285

Assay [2] concerns Proteus mirabilis. Put plainly: Minimum inhibition concentration (MIC), Table 2. To be noted: Germ: Proteus mirabilis; read-out: Minimum inhibition concentration (MIC). The text has this:
Minimum inhibition concentration (MIC) in /ml

Assay [3] concerns Streptococcus pyogenes A. Put plainly: Minimum inhibition concentration (MIC), Table 3. To be noted: Germ: Streptococcus pyogenes A; read-out: Minimum inhibition concentration MIC. The text has this:
Minimum inhibition concentration MIC in γ/ml
Germ: Streptococcus pyogenes A

Assay [4] concerns Streptococcus D. Put plainly: Minimum inhibition concentration (MIC), Table 4. Particulars: Streptococcus, Germ: Streptococcus D; read-out: Minimum inhibition concentration (MIC).
Description: as §1

In assay [5] the test system is Staphylococcus aureus SG 511. Put plainly: Minimum inhibition concentration (MIC), Table 5. To be noted: Staphylococcus aureus, SG511, Germ: Staphylococcus aureus SG 511; read-out: Minimum inhibition concentration (MIC).
Description: as §1
Germ: Staphylococcus aureus SG 511

Structures are written as SMILES. Values after ≈ are worked out from the molar mass of the structure shown.

For `CCCc1nnc(SCC2=C(C(=O)O)N3C(=O)C(NC(=O)Cc4ccc(C(=N)N)cc4)C3SC2)o1` (stereo not shown) [Example 44, 3-[(5-n-propyl-1,3,4-oxadiazole-2-yl)-thiomethyl]-7-(4-amidino-phenylacetamido)-Δ 3-cephem-4-carboxylic acid], the MIC was 0.156 to 0.391 µg/mL (≈ 0.302 to 0.757 µM) in assay [1], 3.1 to 12.5 µg/mL (≈ 6 to 24.2 µM) in assay [2], 0.000391 to 0.0078 µg/mL (≈ 0.000757 to 0.0151 µM) in assay [3] and 10 to 50 µg/mL (≈ 19.4 to 96.8 µM) in assay [4].

On to `CCCc1nnc(SCC2=C(C(=O)O)N3C(=O)C(NC(=O)Cc4ccc(C5=NCCN5)cc4)C3SC2)s1` (stereo not shown) [Example 53], for which the MIC in assay [1] is 0.5 to 1.25 µg/mL (≈ 0.895 to 2.24 µM); in assay [2], 25 µg/mL (≈ 44.7 µM); in assay [3] it was 0.000391 to 0.0078 µg/mL (≈ 0.0007 to 0.014 µM); in assay [4], 0.196 to 6.25 µg/mL (≈ 0.351 to 11.2 µM); in assay [5], 0.0625 to 0.078 µg/mL (≈ 0.112 to 0.14 µM).

In the case of `Cn1nnnc1SCC1=C(C(=O)O)N2C(=O)C(NC(=O)Cc3ccc(C(=N)N)cc3)C2SC1` (stereo not shown) [Example 89, 3-[(1-methyl-1H-tetrazole-5-yl)-thiomethyl]-7-[4-amidino-phenylacetamido]-Δ 3-cephem-4-carboxylic acid], the MIC is 0.156 to 0.391 µg/mL (≈ 0.319 to 0.8 µM) in assay [1], 3.1 to 12.5 µg/mL (≈ 6.35 to 25.6 µM) in assay [2], 0.008 to 0.0156 µg/mL (≈ 0.0164 to 0.0319 µM) in assay [3] and 10 to 50 µg/mL (≈ 20.5 to 102 µM) in assay [4].

`Cc1nnc(SCC2=C(C(=O)O)N3C(=O)C(NC(=O)Cc4ccc(C5=NCCN5)cc4)C3SC2)s1` (stereo not shown) [Example 12, 3-[(5-methyl-1,3,4-thiadiazole-2-yl)-thiomethyl]-7-[4-(imidazoline-2-yl)-phenylacetamido]-Δ 3-cephem-4-carboxylic acid]: the MIC in assay [1] was 0.156 to 0.391 µg/mL (≈ 0.294 to 0.737 µM); in assay [2], 3.1 to 12.5 µg/mL (≈ 5.84 to 23.6 µM); in assay [3], 0.008 to 0.0156 µg/mL (≈ 0.0151 to 0.0294 µM); in assay [4] it was 0.196 to 6.25 µg/mL (≈ 0.369 to 11.8 µM).

For the molecule `O=C(Cc1ccc(C2=NCCN2)cc1)NC1C(=O)N2C(C(=O)O)=C(CSc3nncs3)CSC12` (stereo not shown) [Example 70, 3-[(1,3,4-thiadiazole-2-yl)-thiomethyl]-7-[4-(imidazoline-2-yl)phenylacetamido]-Δ 3-cephem-4-carboxylic acid], the MIC in assay [1] lay in the range of 0.156 to 0.391 µg/mL (≈ 0.302 to 0.757 µM); in assay [2] it was 3.1 to 12.5 µg/mL (≈ 6 to 24.2 µM); in assay [3], 0.000391 to 0.0078 µg/mL (≈ 0.000757 to 0.0151 µM); in assay [4], 0.196 to 6.25 µg/mL (≈ 0.379 to 12.1 µM); in assay [5], 0.0625 to 0.078 µg/mL (≈ 0.121 to 0.151 µM).

Consider `CCCCc1nnc(SCC2=C(C(=O)O)N3C(=O)C(NC(=O)Cc4ccc(C(=N)N)cc4)C3SC2)s1` (stereo not shown) [Example 55, 3-[(5-n-butyl-1,3,4-thiadiazole-2-yl)-thiomethyl]-7-(4-amidinophenylacetamido)-Δ 3-cephem-4-carboxylic acid], for which the MIC in assay [1] was 0.156 to 0.391 µg/mL (≈ 0.285 to 0.715 µM); in assay [2], 25 µg/mL (≈ 45.7 µM); in assay [3], 0.000391 to 0.0078 µg/mL (≈ 0.000715 to 0.0143 µM); in assay [4], 10 to 50 µg/mL (≈ 18.3 to 91.5 µM); in assay [5] it was 0.0625 to 0.078 µg/mL (≈ 0.114 to 0.143 µM).

On to `Cc1nnc(SCC2=C(C(=O)O)N3C(=O)C(NC(=O)Cc4ccc(NC(=N)N)cc4)C3SC2)s1` (stereo not shown) [Example 6, 3-[(5-methyl-1,3,4-thiadiazole-2-yl)-thiomethyl]-7-(4-guanidino-phenylacetamido)-Δ3-cephem-4-carboxylic acid], for which the MIC in assay [1] is 0.156 to 0.391 µg/mL (≈ 0.3 to 0.752 µM); in assay [2] it was 3.1 to 12.5 µg/mL (≈ 5.97 to 24.1 µM); in assay [3], 0.008 to 0.0156 µg/mL (≈ 0.0154 to 0.03 µM); in assay [4], 10 to 50 µg/mL (≈ 19.2 to 96.2 µM); in assay [5], 0.0196 to 0.0391 µg/mL (≈ 0.0377 to 0.0752 µM).

For the molecule `CCCc1nnc(SCC2=C(C(=O)O)N3C(=O)C(NC(=O)Cc4ccc(C(=N)N)cc4)C3SC2)s1` (stereo not shown) [Example 58, 3-[(5-n-propyl-1,3,4-thiadiazole-2-yl)-thiomethyl]-7-(4-amidinophenylacetamido)-Δ 3-cephem-4-carboxylic acid], the MIC in assay [1] fell in the range of 0.156 to 0.391 µg/mL (≈ 0.293 to 0.734 µM); in assay [2], 3.1 to 12.5 µg/mL (≈ 5.82 to 23.5 µM); in assay [3] it was 0.000391 to 0.0078 µg/mL (≈ 0.000734 to 0.0146 µM); in assay [4], 10 to 50 µg/mL (≈ 18.8 to 93.9 µM); in assay [5], 0.0196 to 0.0391 µg/mL (≈ 0.0368 to 0.0734 µM).

For `N=C(N)Nc1ccc(CC(=O)NC2C(=O)N3C(C(=O)O)=C(CSc4nncs4)CSC23)cc1` (stereo not shown) [Example 9, 3-[(1,3,4-thiadiazole-2-yl)-thiomethyl]-7-(4-guanidino-phenylacetamido)-Δ3-cephem-4-carboxylic acid], the MIC in assay [1] was 0.5 to 1.25 µg/mL (≈ 0.989 to 2.47 µM); in assay [2] it was 25 µg/mL (≈ 49.4 µM); in assay [3], 0.000391 to 0.0078 µg/mL (≈ 0.000773 to 0.0154 µM); in assay [4] it was 10 to 50 µg/mL (≈ 19.8 to 98.9 µM); in assay [5] it was 0.0196 to 0.0391 µg/mL (≈ 0.0388 to 0.0773 µM).

Consider `O=C(Cc1ccc(C2=NCCN2)cc1)NC1C(=O)N2C(C(=O)O)=C(CSc3nnco3)CSC12` (stereo not shown) [Example 124, 3-[(1,3,4-oxadiazole-2-yl)-thiomethyl]-7-[4-(imidazoline-2-yl)-phenylacetamido]-Δ 3-cephem-4-carboxylic acid], for which the MIC was in the range of 0.5 to 1.25 µg/mL (≈ 0.999 to 2.5 µM) in assay [1], 3.1 to 12.5 µg/mL (≈ 6.19 to 25 µM) in assay [2], 0.008 to 0.0156 µg/mL (≈ 0.016 to 0.0312 µM) in assay [3] and 10 to 50 µg/mL (≈ 20 to 99.9 µM) in assay [4].

For `O=C(Cc1ccc(C2=NCCCN2)cc1)NC1C(=O)N2C(C(=O)O)=C(CSc3cccc[n+]3[O-])CSC12` (stereo not shown) [Example 107, 3-[(1-oxido-2-pyridyl)-thiomethyl]-7-[4-(1,4,5,6-tetrahydropyrimide-2-yl)-phenylacetamido]-Δ3-cephem-4-carboxylic acid], the MIC in assay [1] was 1.6 to 2.5 µg/mL (≈ 2.96 to 4.63 µM); in assay [2], 25 µg/mL (≈ 46.3 µM); in assay [4], 10 to 50 µg/mL (≈ 18.5 to 92.7 µM).
